Reference: publication PMC5562805, “Overcoming the plasticity of plant specialized metabolism for selective diterpene production in yeast” (Scientific Reports, 2017)

Target: T1, CYP76AK6 (Salvia pomifera, UniProt A0A0S1TPC7)
T1 construct: expressed in S. cerevisiae (pESC-Trp) with CYP76AH24 variant and Populus trichocarpa CPR2
T1 sequence (A0A0S1TPC7 1-500): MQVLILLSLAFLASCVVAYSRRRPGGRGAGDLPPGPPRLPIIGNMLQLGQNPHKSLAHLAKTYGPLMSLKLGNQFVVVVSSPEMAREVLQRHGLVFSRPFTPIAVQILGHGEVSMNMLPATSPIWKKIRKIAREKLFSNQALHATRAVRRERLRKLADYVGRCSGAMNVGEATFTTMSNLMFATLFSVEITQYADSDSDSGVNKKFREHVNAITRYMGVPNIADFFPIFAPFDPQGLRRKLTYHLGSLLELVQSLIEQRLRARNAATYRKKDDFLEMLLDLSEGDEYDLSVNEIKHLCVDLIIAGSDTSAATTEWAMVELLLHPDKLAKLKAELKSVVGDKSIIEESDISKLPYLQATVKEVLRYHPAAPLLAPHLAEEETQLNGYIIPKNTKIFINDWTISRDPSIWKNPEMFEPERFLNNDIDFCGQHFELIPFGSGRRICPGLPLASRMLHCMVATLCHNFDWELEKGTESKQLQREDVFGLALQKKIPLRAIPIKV
Assay: product titre in engineered yeast cells, GC
Format: cell-based
Conditions: C-20 oxidation to pisiferic acid; co-expressed CYP76AH24(F112L), CPR2, Cytb5

CC(C)c1cc2c(cc1O)[C@@]1(C)CCCC(C)(C)[C@@H]1CC2 [ferruginol]
product titre in engineered yeast cells, GC: CYP76AH24(F112L) variant enabled the complete shift from carnosic acid to pisiferic acid production in yeast
